Test results as given in PubChem BioAssay (NCI).
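The compound was tested at five concentrations on cells cultured in 96-well plates, with a 48-hour exposure period. The concentration for 50% growth inhibition is given as GI50. TGI is the concentration that stops growth completely.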

What was measured:
Assay in all cases: NCI-60 cell line screen, 48 h
786-0 renal = tested on: 786-0 renal
A498 renal = tested on: A498 renal
A549 NSCLC = tested on: A549 NSCLC
ACHN renal = tested on: ACHN renal
BT-549 breast = tested on: BT-549 breast
CAKI-1 renal = tested on: CAKI-1 renal
CCRF-CEM leukemia = tested on: CCRF-CEM leukemia
COLO 205 colon = tested on: COLO 205 colon
DU-145 prostate = tested on: DU-145 prostate
EKVX NSCLC = tested on: EKVX NSCLC
HCC-2998 colon = tested on: HCC-2998 colon
HCT-116 colon = tested on: HCT-116 colon
HCT-15 colon = tested on: HCT-15 colon
HL-60(TB) leukemia = tested on: HL-60(TB) leukemia
HOP-62 NSCLC = tested on: HOP-62 NSCLC
HOP-92 NSCLC = tested on: HOP-92 NSCLC
HS 578T breast = tested on: HS 578T breast
HT29 colon = tested on: HT29 colon
IGROV1 ovarian = tested on: IGROV1 ovarian
K-562 leukemia = tested on: K-562 leukemia
KM12 colon = tested on: KM12 colon
LOX IMVI melanoma = tested on: LOX IMVI melanoma
M14 melanoma = tested on: M14 melanoma
MALME-3M melanoma = tested on: MALME-3M melanoma
MCF7 breast = tested on: MCF7 breast
MDA-MB-231 breast = tested on: MDA-MB-231 breast
MDA-MB-435 = tested on: MDA-MB-435
MOLT-4 leukemia = tested on: MOLT-4 leukemia
NCI-H226 lung = tested on: NCI-H226 lung
NCI-H23 lung = tested on: NCI-H23 lung
NCI-H460 lung = tested on: NCI-H460 lung
NCI-H522 lung = tested on: NCI-H522 lung
NCI/ADR-RES ovarian = tested on: NCI/ADR-RES ovarian
OVCAR-3 ovarian = tested on: OVCAR-3 ovarian
OVCAR-4 ovarian = tested on: OVCAR-4 ovarian
OVCAR-5 ovarian = tested on: OVCAR-5 ovarian
OVCAR-8 ovarian = tested on: OVCAR-8 ovarian
PC-3 prostate = tested on: PC-3 prostate
RPMI-8226 leukemia = tested on: RPMI-8226 leukemia
RXF 393 renal = tested on: RXF 393 renal
SF-268 CNS = tested on: SF-268 CNS
SF-295 CNS = tested on: SF-295 CNS
SF-539 CNS = tested on: SF-539 CNS
SK-MEL-2 melanoma = tested on: SK-MEL-2 melanoma
SK-MEL-28 melanoma = tested on: SK-MEL-28 melanoma
SK-MEL-5 melanoma = tested on: SK-MEL-5 melanoma
SK-OV-3 ovarian = tested on: SK-OV-3 ovarian
SN12C renal = tested on: SN12C renal
SNB-19 CNS = tested on: SNB-19 CNS
SNB-75 CNS = tested on: SNB-75 CNS
SR leukemia = tested on: SR leukemia
SW-620 colon = tested on: SW-620 colon
T-47D breast = tested on: T-47D breast
TK-10 renal = tested on: TK-10 renal
U251 CNS = tested on: U251 CNS
UACC-257 melanoma = tested on: UACC-257 melanoma
UACC-62 melanoma = tested on: UACC-62 melanoma
UO-31 renal = tested on: UO-31 renal

CNC(=O)c1cncc(/C=C/c2ccccc2C)c1
GI50 (786-0 renal): > 25 µM | TGI (786-0 renal): > 25 µM | GI50 (A498 renal): 17.4 µM | TGI (A498 renal): > 25 µM | GI50 (A549 NSCLC): > 25 µM | TGI (A549 NSCLC): > 25 µM | GI50 (ACHN renal): > 25 µM | TGI (ACHN renal): > 25 µM | GI50 (BT-549 breast): > 25 µM | TGI (BT-549 breast): > 25 µM | GI50 (CAKI-1 renal): > 25 µM | TGI (CAKI-1 renal): > 25 µM | GI50 (CCRF-CEM leukemia): > 25 µM | TGI (CCRF-CEM leukemia): > 25 µM | GI50 (COLO 205 colon): > 25 µM | TGI (COLO 205 colon): > 25 µM | GI50 (DU-145 prostate): > 25 µM | TGI (DU-145 prostate): > 25 µM | GI50 (EKVX NSCLC): > 25 µM | TGI (EKVX NSCLC): > 25 µM | GI50 (HCC-2998 colon): > 25 µM | TGI (HCC-2998 colon): > 25 µM | GI50 (HCT-116 colon): > 25 µM | TGI (HCT-116 colon): > 25 µM | GI50 (HCT-15 colon): > 25 µM | TGI (HCT-15 colon): > 25 µM | GI50 (HL-60(TB) leukemia): > 25 µM | TGI (HL-60(TB) leukemia): > 25 µM | GI50 (HOP-62 NSCLC): > 25 µM | TGI (HOP-62 NSCLC): > 25 µM | GI50 (HOP-92 NSCLC): > 25 µM | TGI (HOP-92 NSCLC): > 25 µM | GI50 (HS 578T breast): > 25 µM | TGI (HS 578T breast): > 25 µM | GI50 (HT29 colon): > 25 µM | TGI (HT29 colon): > 25 µM | GI50 (IGROV1 ovarian): > 25 µM | TGI (IGROV1 ovarian): > 25 µM | GI50 (K-562 leukemia): > 25 µM | TGI (K-562 leukemia): > 25 µM | GI50 (KM12 colon): > 25 µM | TGI (KM12 colon): > 25 µM | GI50 (LOX IMVI melanoma): > 25 µM | TGI (LOX IMVI melanoma): > 25 µM | GI50 (M14 melanoma): > 25 µM | TGI (M14 melanoma): > 25 µM | GI50 (MALME-3M melanoma): > 25 µM | TGI (MALME-3M melanoma): > 25 µM | GI50 (MCF7 breast): > 25 µM | TGI (MCF7 breast): > 25 µM | GI50 (MDA-MB-231 breast): > 25 µM | TGI (MDA-MB-231 breast): > 25 µM | GI50 (MDA-MB-435): > 25 µM | TGI (MDA-MB-435): > 25 µM | GI50 (MOLT-4 leukemia): > 25 µM | TGI (MOLT-4 leukemia): > 25 µM | GI50 (NCI-H226 lung): > 25 µM | TGI (NCI-H226 lung): > 25 µM | GI50 (NCI-H23 lung): > 25 µM | TGI (NCI-H23 lung): > 25 µM | GI50 (NCI-H460 lung): > 25 µM | TGI (NCI-H460 lung): > 25 µM | GI50 (NCI-H522 lung): > 25 µM | TGI (NCI-H522 lung): > 25 µM | GI50 (NCI/ADR-RES ovarian): > 25 µM | TGI (NCI/ADR-RES ovarian): > 25 µM | GI50 (OVCAR-3 ovarian): > 25 µM | TGI (OVCAR-3 ovarian): > 25 µM | GI50 (OVCAR-4 ovarian): > 25 µM | TGI (OVCAR-4 ovarian): > 25 µM | GI50 (OVCAR-5 ovarian): > 25 µM | TGI (OVCAR-5 ovarian): > 25 µM | GI50 (OVCAR-8 ovarian): > 25 µM | TGI (OVCAR-8 ovarian): > 25 µM | GI50 (PC-3 prostate): > 25 µM | TGI (PC-3 prostate): > 25 µM | GI50 (RPMI-8226 leukemia): > 25 µM | TGI (RPMI-8226 leukemia): > 25 µM | GI50 (RXF 393 renal): > 25 µM | TGI (RXF 393 renal): > 25 µM | GI50 (SF-268 CNS): > 25 µM | TGI (SF-268 CNS): > 25 µM | GI50 (SF-295 CNS): > 25 µM | TGI (SF-295 CNS): > 25 µM | GI50 (SF-539 CNS): > 25 µM | TGI (SF-539 CNS): > 25 µM | GI50 (SK-MEL-2 melanoma): > 25 µM | TGI (SK-MEL-2 melanoma): > 25 µM | GI50 (SK-MEL-28 melanoma): > 25 µM | TGI (SK-MEL-28 melanoma): > 25 µM | GI50 (SK-MEL-5 melanoma): > 25 µM | TGI (SK-MEL-5 melanoma): > 25 µM | GI50 (SK-OV-3 ovarian): > 25 µM | TGI (SK-OV-3 ovarian): > 25 µM | GI50 (SN12C renal): > 25 µM | TGI (SN12C renal): > 25 µM | GI50 (SNB-19 CNS): > 25 µM | TGI (SNB-19 CNS): > 25 µM | GI50 (SNB-75 CNS): > 20.7 µM | TGI (SNB-75 CNS): > 25 µM | GI50 (SR leukemia): > 25 µM | TGI (SR leukemia): > 25 µM | GI50 (SW-620 colon): > 25 µM | TGI (SW-620 colon): > 25 µM | GI50 (T-47D breast): > 25 µM | TGI (T-47D breast): > 25 µM | GI50 (TK-10 renal): > 25 µM | TGI (TK-10 renal): > 25 µM | GI50 (U251 CNS): > 25 µM | TGI (U251 CNS): > 25 µM | GI50 (UACC-257 melanoma): > 25 µM | TGI (UACC-257 melanoma): > 25 µM | GI50 (UACC-62 melanoma): > 25 µM | TGI (UACC-62 melanoma): > 25 µM | GI50 (UO-31 renal): > 25 µM | TGI (UO-31 renal): > 25 µM

COc1cccc(-c2cc(=O)c3c(C)cc(C)nc3[nH]2)c1
TGI (786-0 renal): > 100 µM | TGI (A498 renal): 10.8 µM | TGI (A549 NSCLC): > 100 µM | TGI (ACHN renal): > 100 µM | TGI (BT-549 breast): > 100 µM | TGI (CCRF-CEM leukemia): 2.87 µM | TGI (COLO 205 colon): 0.637 µM | TGI (DU-145 prostate): > 72.1 µM | TGI (EKVX NSCLC): > 100 µM | TGI (HCC-2998 colon): 6.19 µM | TGI (HCT-116 colon): > 59.9 µM | TGI (HCT-15 colon): > 45.5 µM | TGI (HL-60(TB) leukemia): 0.505 µM | TGI (HOP-62 NSCLC): > 65.1 µM | TGI (HOP-92 NSCLC): > 85 µM | TGI (HS 578T breast): > 100 µM | TGI (IGROV1 ovarian): > 67.4 µM | TGI (K-562 leukemia): 1.41 µM | TGI (KM12 colon): 16.6 µM | TGI (LOX IMVI melanoma): > 100 µM | TGI (M14 melanoma): > 100 µM | TGI (MALME-3M melanoma): > 100 µM | TGI (MCF7 breast): 27.3 µM | TGI (MDA-MB-231 breast): > 100 µM | TGI (MDA-MB-435): 0.398 µM | TGI (MOLT-4 leukemia): > 71.9 µM | TGI (NCI-H226 lung): 9.09 µM | TGI (NCI-H23 lung): > 38.4 µM | TGI (NCI-H460 lung): > 42.1 µM | TGI (NCI-H522 lung): 11.5 µM | TGI (NCI/ADR-RES ovarian): > 100 µM | TGI (OVCAR-3 ovarian): 0.652 µM | TGI (OVCAR-4 ovarian): > 100 µM | TGI (OVCAR-5 ovarian): > 100 µM | TGI (OVCAR-8 ovarian): > 100 µM | TGI (PC-3 prostate): > 100 µM | TGI (RPMI-8226 leukemia): 6.09 µM | TGI (RXF 393 renal): > 100 µM | TGI (SF-268 CNS): 36.2 µM | TGI (SF-295 CNS): > 73.6 µM | TGI (SK-MEL-2 melanoma): 97.6 µM | TGI (SK-MEL-28 melanoma): > 100 µM | TGI (SK-MEL-5 melanoma): 14.8 µM | TGI (SK-OV-3 ovarian): > 100 µM | TGI (SN12C renal): > 100 µM | TGI (SNB-19 CNS): > 100 µM | TGI (SNB-75 CNS): 0.671 µM | TGI (SR leukemia): 0.513 µM | TGI (SW-620 colon): > 100 µM | TGI (T-47D breast): > 100 µM | TGI (TK-10 renal): > 100 µM | TGI (U251 CNS): > 88.6 µM | TGI (UACC-62 melanoma): > 100 µM | TGI (UO-31 renal): > 100 µM
